For two compounds, Activity, IC50 and inhibition results are on record in ChEMBL document CHEMBL4229400, “Covalent inhibitors of nicotinamide N-methyltransferase (NNMT) provide evidence for target engagement challenges in situ” (Bioorg Med Chem Lett, 2018).

The structures appear in SMILES notation. Substitutions are numbered along the chain they refer to. Calls of active or inactive are those of the source. No cut-off for these calls is given here.

For experiment [1], the target named is T1, Aldehyde dehydrogenase 1A1 (Homo sapiens) (UniProt P00352).
T1 sequence (whole entry): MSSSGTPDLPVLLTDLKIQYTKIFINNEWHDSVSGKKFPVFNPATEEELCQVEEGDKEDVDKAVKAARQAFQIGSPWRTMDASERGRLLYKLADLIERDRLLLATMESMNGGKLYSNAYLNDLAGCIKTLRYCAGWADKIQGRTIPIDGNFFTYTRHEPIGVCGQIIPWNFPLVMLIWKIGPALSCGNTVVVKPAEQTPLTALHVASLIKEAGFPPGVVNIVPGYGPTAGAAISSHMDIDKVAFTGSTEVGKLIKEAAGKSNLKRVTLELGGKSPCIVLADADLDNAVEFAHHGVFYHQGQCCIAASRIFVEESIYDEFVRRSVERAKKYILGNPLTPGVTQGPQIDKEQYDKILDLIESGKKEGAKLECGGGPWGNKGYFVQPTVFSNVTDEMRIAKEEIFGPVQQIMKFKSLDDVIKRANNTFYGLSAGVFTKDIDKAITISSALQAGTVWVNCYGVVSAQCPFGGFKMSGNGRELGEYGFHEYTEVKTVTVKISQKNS
The experiment is described as follows: Binding affinity to ALDH1A1 cysteine residue in human 786-O cell soluble proteomic lysate at 5 uM incubated for 1 hr followed by cell lysis by IA-alkyne probe based isoTOP-ABPP analysis.

Experiment [2] deals with T2, Nicotinamide N-methyltransferase (Homo sapiens, UniProt P40261).
T2 sequence (P40261 whole entry): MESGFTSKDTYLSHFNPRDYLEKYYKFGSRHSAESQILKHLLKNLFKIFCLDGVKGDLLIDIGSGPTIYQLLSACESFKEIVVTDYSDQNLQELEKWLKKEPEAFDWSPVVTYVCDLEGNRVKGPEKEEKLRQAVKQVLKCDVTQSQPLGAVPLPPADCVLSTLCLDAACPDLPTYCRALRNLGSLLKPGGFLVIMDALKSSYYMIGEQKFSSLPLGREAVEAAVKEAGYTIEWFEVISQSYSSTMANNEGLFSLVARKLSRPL
Briefly: (§1) Inhibition of SAH-rhodamine binding to NNMT in human 786-O cell soluble proteomic lysate preincubated for 1 hr followed by SAH-rhodamine addition measured after 5 mins by Gel-based ABPP analysis.

Experiment [3] concerns the target T3, Sterol carrier protein 2 (Homo sapiens) (UniProt P22307).
T3 sequence (whole entry): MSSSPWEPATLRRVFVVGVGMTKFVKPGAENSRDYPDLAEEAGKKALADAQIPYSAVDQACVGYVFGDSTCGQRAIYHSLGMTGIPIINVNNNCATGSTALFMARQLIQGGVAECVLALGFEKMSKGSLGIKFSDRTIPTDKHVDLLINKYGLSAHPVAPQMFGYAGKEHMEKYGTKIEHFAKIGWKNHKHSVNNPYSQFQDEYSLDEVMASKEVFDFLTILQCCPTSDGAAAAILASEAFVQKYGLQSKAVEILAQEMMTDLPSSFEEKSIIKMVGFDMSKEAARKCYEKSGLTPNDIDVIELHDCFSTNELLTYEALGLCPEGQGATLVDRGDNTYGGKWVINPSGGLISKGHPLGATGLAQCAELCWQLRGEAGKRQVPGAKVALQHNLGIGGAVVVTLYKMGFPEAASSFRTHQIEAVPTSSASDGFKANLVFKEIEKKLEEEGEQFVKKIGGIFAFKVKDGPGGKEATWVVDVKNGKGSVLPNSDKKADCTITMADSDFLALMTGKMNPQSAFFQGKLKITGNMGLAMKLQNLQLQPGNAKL
The experiment is described as follows: Binding affinity to SCP2 cysteine residue in human 786-O cell soluble proteomic lysate at 5 uM incubated for 1 hr followed by cell lysis by IA-alkyne probe based isoTOP-ABPP analysis.

Experiment [4] has as its target T4, Heme oxygenase 2 (Homo sapiens) (UniProt P30519).
T4 sequence (whole entry): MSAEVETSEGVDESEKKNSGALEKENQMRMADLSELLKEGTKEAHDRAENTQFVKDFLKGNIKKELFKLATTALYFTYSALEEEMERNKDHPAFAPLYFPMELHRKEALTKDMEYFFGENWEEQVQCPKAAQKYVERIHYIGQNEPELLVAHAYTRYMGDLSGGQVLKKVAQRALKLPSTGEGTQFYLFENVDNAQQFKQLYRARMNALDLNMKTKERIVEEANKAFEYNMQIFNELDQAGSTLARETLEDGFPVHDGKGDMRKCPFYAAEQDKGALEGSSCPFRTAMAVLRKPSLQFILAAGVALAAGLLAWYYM
The experiment is described as follows: Binding affinity to HMOX2 cysteine residue in human 786-O cell soluble proteomic lysate at 5 uM incubated for 1 hr followed by cell lysis by IA-alkyne probe based isoTOP-ABPP analysis.

Experiment [5] deals with T2, Nicotinamide N-methyltransferase. The experiment is described as follows: Inhibition of NNMT in human 786-O cell lysate using d4-nicotinamide as substrate preincubated for 1 hr followed by substrate and SAM addition measured after 15 to 30 mins by LC-MS analysis.
For experiment [6] the target is unchanged. Briefly: Inhibition of NNMT in human 786-O cell lysate using d4-nicotinamide as substrate pretreated for 1 hr at 3 mins post 20 uM SAM addition followed by substrate addition measured after 15 to 30 mins by LC-MS analysis.
The target in experiment [7] is T5, Nicotinamide N-methyltransferase (Homo sapiens) (UniProt P40261).
T5 sequence (whole entry): T2 sequence (P40261 whole entry)
Described as §1.

For experiment [8], the target named is T6, Thioredoxin domain-containing protein 17 (Homo sapiens) (UniProt Q9BRA2).
T6 sequence (whole entry): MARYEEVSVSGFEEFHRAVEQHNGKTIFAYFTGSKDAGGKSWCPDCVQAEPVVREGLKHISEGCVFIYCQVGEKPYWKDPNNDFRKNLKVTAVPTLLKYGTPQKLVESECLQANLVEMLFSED
Briefly: Binding affinity to TXNDC17 cysteine residue in human 786-O cell lysate at 5 uM incubated for 1 hr followed by cell lysis by IA-alkyne probe based isoTOP-ABPP analysis.

For experiment [9], the target named is T5, Nicotinamide N-methyltransferase (Homo sapiens). The experiment is described as follows: Binding affinity to NNMT C165 residue in human 786-O cell lysate at 5 uM incubated for 4 hrs followed by cell lysis by IA-alkyne probe based isoTOP-ABPP analysis.
Experiment [10] relates to T7, Nicotinamide N-methyltransferase (Homo sapiens), P40261 [C165A].
T7 sequence (whole entry): T2 sequence (P40261 whole entry) with C165A
The experiment is described as follows: Inhibition of NNMT C165A mutant in human 786-O cell lysate using d4-nicotinamide as substrate preincubated for 1 hr followed by substrate and SAM addition measured after 15 to 30 mins by LC-MS analysis.

Broadly, the IC50 is the midpoint of a concentration-inhibition curve. As for `O=C(Nc1cccnc1Cl)c1cc(N(CCCc2ccccc2)C(=O)CCl)cc(C(F)(F)F)c1`, the outcome in [1], in experiment [3] and in experiment [4] was Active. Moreover, the IC50 in experiment [2] was 22 µM; in experiment [5], 17 µM.

For `CC(C)CCN(C(=O)CCl)c1cc(C(=O)NCc2cccc([N+](=O)[O-])c2)cc(C(F)(F)F)c1`, the figures for the IC50 in [6], in experiment [2] and in experiment [5] were 6.2 µM, 0.35 µM and 0.18 µM, respectively. The result in experiment [1], in experiment [8] and in [4] was Active. Further, the inhibition entry in experiment [7] is “Dose-dependent effect”. For the same compound, the outcome in experiment [9] was inactive. In addition, the inhibition entry in experiment [10] was “inactive”.
